For this data set the following is noted: Crystal; visual observation.

± gives the expanded uncertainty stated by the source.

Regarding `COc1cc2oc(=O)cc(-c3ccccc3)c2cc1O` [6-hydroxy-7-methoxy-4-phenylcoumarin], the Normal melting temperature amounted to 211.50 ± 0.5 °C. To `O=c1cc(-c2ccccc2)c2cc(O)c(O)cc2o1` [6,7-dihydroxy-4-phenylcoumarin] belongs 269.50 ± 0.5 °C.

(Values after the NIST ThermoML archive (doi:10.1021/acs.jced.5b00098).)
